Laboratory results as given in publication PMC6268373, “Systematic Study of the Physicochemical Properties of a Homologous Series of Aminobisphosphonates” (Molecules, 2012).
≈ marks a conversion by molar mass, not a printed value. Read-outs that look alike come from different tables or passages of the source.

Columns and labels:
[1] = Aqueous solubility of saturated solution at 21 °C (phosphorus determination by molybdenum blue spectrophotometry); details: 21 °C; for solubility at 30 min: water, thermodynamic from solid; for pH of saturated solution: saturated aqueous solution, agitation time 30 min
Experimental: (§1) A Jasco V-530 UV/Vis spectrophotometer was used for phosphorus determination at 880 nm wavelength. Filtered liquid samples were diluted to the appropriate volume with Milli-Q water and were digested with the persulphate oxidation technique in acidic medium at elevated temperature to convert aminobisphosponates to orthophosphate. In an acidic medium, ammonium molybdate and antimony potassium tartrate react with orthophosphate to form a phosphomolybdic acid that is reduced to intensively colored molybdenum blue by ascorbic acid [30].
(§2) The mixture containing an excess of the studied compound was first agitated for predetermined time with magnetic stirrer and before taking the sample mixture was allowed to stand for 24 h without stirring. The sample (about 5 mL) was taken from liquid above the solids, pH was measured and the sample was filtered through 0.2 µm membrane filter to remove any possible insoluble particles. The phosphorus concentration in the filtered sample solution was determined by using the spectrophotometric method described above.

[2] = pKa determination with Sirius instrument (PCA200)
[3] = Protonation constants by (traditional) potentiometric titration (TPT), SUPERQUAD; details: 0.1 M NaNO3, 25 °C; for pKa: TPT; for logβx ± 3σ, x = 1 (H3L−) / logβx ± 3σ, x = 2 (H4L) / logβx ± 3σ, x = 3 (H5L+) / logβx ± 3σ, x = −1 (HL3−) / logβx ± 3σ, x = −2 (L4−): overall protonation, zero level H2L2−
Description: Results were obtained from […] as overall stability constants (log β values); following the chosen zero level H2L^2−. This zero level H2L^2− was chosen in the calculations to avoid any accumulation of errors of protonation constants at different pH ranges. The log β results for reactions (4) and (5) obtained in the final refinements are listed in Table S3 (see Supporting Information) with error limits (±3σ), number of points/number of titrations and χ^2/Σ statistics.
The details of the experiments using (traditional) potentiometric titration are presented in the Supporting Information. The results of the determination by Sirius instrument are shown in the Supporting Information. Potentiometric titrations of the compounds were performed with the PCA200 apparatus (Sirius Analytical Instruments Ltd, Forest Row, East Sussex, UK).
Table S2. The effect of pH on aqueous solubility (mg/L) of aminoalkylbis(phosphonates) […]
Solubility (g/L) of Compound
Determination of the Protonation Constants Using (traditional) Potentiometric Titration. Reagents:
Aqueous 0.1 M NaOH was prepared from Titrisol ampoules (Merck) and 0.1 M HNO3 from Convol ampoules (BDH). The background solution was prepared by dissolving NaNO3 in deionised water.
The NaNO3 and NaCl used in reference electrode were p.a. grade (Merck). The water used in the dilutions and titration solutions was purified with Milli-RO and Milli-Q water purification systems […]
Potentiometric measurements: The protonation equilibria was studied in aqueous 0.1 M NaNO3 at 25.0 ± 0.1 °C through a series of potentiometric EMF titrations carried out with a Schott-Geräte GmbH […]
The cell arrangement for the measurement of the hydrogen ion concentration [H+] was as follows:
−RE […] equilibrium solution […] GE+ (1) where GE denotes a glass electrode (Schott N2680), and RE is Hg, Hg2Cl2 […] 0.01 M NaCl, 0.09 M NaNO3. Expression (2) is valid assuming that the activity coefficients are constant.
The cell parameter E0 and the liquid junction coefficient jH, valid in acidic solutions, were determined for each titration by adding a known amount of HNO3 to the background electrolyte. The value of the liquid junction coefficient jOH, valid in basic solutions, was determined periodically. Only stable EMF readings were used in the calculations.
During the measurements of the protonation equilibria, aqueous 0.1 M NaOH or 0.1 M HNO3 was […]
Four to eight independent titrations were carried out for each ligand. The number of data points used in […]
Data treatment: Protonation and deprotonation of the ligands were controlled by addition of HNO3 or NaOH. The curves of ZH versus pH were drawn to visualize the experimental data sets. ZH describes the average number of H+ ions added or liberated per mole of ligand and is given by the relationship […]
where CH denotes the total concentration of protons calculated over the zero level H2L2−.
In the evaluation of the equilibrium constants, the following two-component equilibria were utilized:
H2L2− ⇋ H2-xL(2+x)– + xH+ , x = 1–2; β–x (4) xH+ + H2L2− ⇋ Hx+2Lx–2, x = 1–3; βx (5)
Mathematical analysis of the systems involves a search for protonation models and equilibrium constants that best describe the experimental data. The calculations were carried out with the computer […]
1200). The sample standard deviation Σ and the χ2 statistics used as criteria in the selection of the models were those provided by the program. As a means to improve the confidence level, the error limits for log β values determined in this study are reported as three times the standard deviation estimated by the program.
Figure S2. ZH vs. pH for protonation of compounds (a) 1; (b) 2; (c) 3; (d) 4 and (e) 5.

[4] = Thermal analysis (TG/DTA and TGA 7); type: physicochemical; details: for Td / Td (decomposition onset): air; for Td: 5 °C/min; for Temp. range of 1st cleavage: lower limit taken at 0.5 wt-%; for Td (decomposition onset): average from both instruments, heating rate 5 °C/min
Experimental: Thermal decomposition paths with evaluation of crystal water content were obtained parallel with two instruments; Perkin Elmer STA 6000 thermogravimetric TG/DTA and Perkin Elmer TGA 7 analyzers (Perkin Elmer, Massachusetts, USA). Measurements were carried out in an open platinum crucible (the higher 5 mm crucible was used in TG/DTA and a shallower 2 mm crucible in TGA 7) under air atmosphere (flow rate of 45 mL/min) with a heating rate of 5 °C/min over the temperature range of 25−700 °C. The temperature calibration of STA 6000 was made using melting points of indium (156.60 °C) and zinc (419.5 °C) standards. For TGA 7 magnetic Curie-point calibration technique (Alumel, Ni, Perkalloy, Fe) was used. The weight balance of both instruments was calibrated by measuring a standard weight of 50 mg at room temperature. The sample weights used in the measurements were about 4–8 mg, and for each bisphosphonate, it was attempted to keep the same on both instruments. The melting/dehydration/decomposition behavior of the compounds was also visually monitored using a Stuart Scientific SMP3 melting point apparatus.

[5] = cited from earlier work; for logK, pKa3: H2L2− + H+ ⇋ H3L−; for logK, pKa2: H3L− + H+ ⇋ H4L; for logK, pKa4: HL3− + H+ ⇋ H2L2−
[6] = Effect of temperature on aqueous solubility; details: thermodynamic from solid
Experimental: as §1, §2

[7] = Effect of pH on aqueous solubility; details: 21 °C, thermodynamic from solid
Experimental: as §1, §2

[8] = aqueous 0.1 M NaNO3, log K, pKa1 (H4L + H+ ⇋ H5L+), approximate values
[9] = aqueous 0.1 M NaNO3, log K, pKa2 (H3L− + H+ ⇋ H4L)
[10] = aqueous 0.1 M NaNO3, log K, pKa3 (H2L2− + H+ ⇋ H3L−)
[11] = aqueous 0.1 M NaNO3, log K, pKa4 (HL3− + H+ ⇋ H2L2−)
[12] = aqueous 0.1 M NaNO3, log K, pKa5 (L4− + H+ ⇋ HL3−)

## NCCCCC(O)(P(=O)(O)O)P(=O)(O)O [Compound 3, (5-Amino-1-hydroxypentylidene)bisphosphonic acid]
[1]; Milli-Q water, unbuffered
  solubility at 30 min: 4010 µg/mL (≈ 15.2 mM)
[1]
  pH of saturated solution: 2.22
[2]
  pKa 2 (Sirius): 1.92
  pKa 3 (Sirius): 2.42
  pKa 4 (Sirius): 6.40
[3]; [8]
  pKa: 0.62
[3]; [9]
  pKa: 2.3
[3]; [10]
  pKa: 6.44
[3]; [11]
  pKa: 10.8
[3]; [12]
  pKa: 12.1
[3]
  logβx ± 3σ, x = 1 (H3L−): 6.44 ± 0.02
  logβx ± 3σ, x = 2 (H4L): 8.74 ± 0.03
  logβx ± 3σ, x = 3 (H5L+): 9.36 ± 0.51
  logβx ± 3σ, x = −1 (HL3−): −10.78 ± 0.02
  logβx ± 3σ, x = −2 (L4−): −22.83 ± 0.03
[4]; TG/DTA, higher crucible
  Onset temperature of first cleavage: 217 °C
  Td: 217 °C
  Temp. range of 1st cleavage: 198–252 °C
[4]; TGA 7, shallow crucible
  Onset temperature of first cleavage: 224 °C
  Td: 224 °C
  Temp. range of 1st cleavage: 195–265 °C
[4]
  Td (decomposition onset): 220 °C

## NCCCCCC(O)(P(=O)(O)O)P(=O)(O)O [Compound 4, (6-Amino-1-hydroxyhexylidene)bisphosphonic acid, reference compound]
[5]; ref 4
  logK, pKa3: 6.50
  logK, pKa2: 2.45
  logK, pKa4: 10.66
[5]; ref 13
  logK, pKa3: 5.49
  logK, pKa2: 2.90
  logK, pKa4: 8.63
[5]; L4− + H+ ⇋ HL3−, ref 13
  logK, pKa5: 10.9
[1]
  solubility at 30 min: 3420 µg/mL (≈ 12.3 mM)
  pH of saturated solution: 2.26
[6]; 4 °C, water
  solubility at 24 h: 4470 µg/mL (≈ 16.1 mM)
[6]; 7.6 °C, water
  solubility at 24 h: 4600 µg/mL (≈ 16.6 mM)
[6]; 21 °C, water
  solubility at 24 h: 5170 µg/mL (≈ 18.7 mM)
[6]; 30 °C, water
  solubility at 24 h: 5770 µg/mL (≈ 20.8 mM)
[6]; 40 °C, water
  solubility at 24 h: 7620 µg/mL (≈ 27.5 mM)
[6]; 50 °C, water
  solubility at 24 h: 9550 µg/mL (≈ 34.5 mM)
[2]
  pKa 2 (Sirius): 2.99
  pKa 3 (Sirius): 6.36
  pKa 4 (Sirius): 6.82
[3]; log K, pKa1 (H4L + H+ ⇋ H5L+), approximate values
  pKa: 0.94
[3]; log K, pKa2 (H3L− + H+ ⇋ H4L)
  pKa: 2.38
[3]; log K, pKa3 (H2L2− + H+ ⇋ H3L−)
  pKa: 6.62
[3]; log K, pKa4 (HL3− + H+ ⇋ H2L2−)
  pKa: 10.9
[3]; log K, pKa5 (L4− + H+ ⇋ HL3−)
  pKa: 11.9
[3]
  logβx ± 3σ, x = 1 (H3L−): 6.62 ± 0.02
  logβx ± 3σ, x = 2 (H4L): 9.00 ± 0.03
  logβx ± 3σ, x = 3 (H5L+): 9.94 ± 0.12
  logβx ± 3σ, x = −1 (HL3−): −10.86 ± 0.02
  logβx ± 3σ, x = −2 (L4−): −22.80 ± 0.02
[4]; TG/DTA, higher crucible
  Onset temperature of first cleavage: 208 °C
  Td: 208 °C
  Temp. range of 1st cleavage: 196–260 °C
[4]; TGA 7, shallow crucible
  Onset temperature of first cleavage: 215 °C
  Td: 215 °C
  Temp. range of 1st cleavage: 183–251 °C
[4]
  Td (decomposition onset): 212 °C
[7]; pH 0, aqueous buffer
  solubility at 30 min: 6340 µg/mL (≈ 22.9 mM)
[7]; pH 1, aqueous buffer
  solubility at 30 min: 3840 µg/mL (≈ 13.9 mM)
[7]; pH 2, aqueous buffer
  solubility at 30 min: 2900 µg/mL (≈ 10.5 mM)
[7]; pH 3, aqueous buffer
  solubility at 30 min: 2970 µg/mL (≈ 10.7 mM)
[7]; pH 4, aqueous buffer
  solubility at 30 min: 3090 µg/mL (≈ 11.1 mM)
[7]; pH 5, aqueous buffer
  solubility at 30 min: 3220 µg/mL (≈ 11.6 mM)
[7]; pH 6, aqueous buffer
  solubility at 30 min: 3390 µg/mL (≈ 12.2 mM)
[7]; pH 7, aqueous buffer
  solubility at 30 min: 3420 µg/mL (≈ 12.3 mM)
[7]; pH 8, aqueous buffer
  solubility at 30 min: 3530 µg/mL (≈ 12.7 mM)
[7]; pH 9, aqueous buffer
  solubility at 30 min: 3080 µg/mL (≈ 11.1 mM)
[7]; pH 10, aqueous buffer
  solubility at 30 min: 3180 µg/mL (≈ 11.5 mM)
[7]; pH 11, aqueous buffer
  solubility at 30 min: 3380 µg/mL (≈ 12.2 mM)

## NCCCCCCCC(O)(P(=O)(O)O)P(=O)(O)O [Compound 5, (8-Amino-1-hydroxyoctylidene)bisphosphonic acid]
[1]; Milli-Q water, unbuffered
  solubility at 30 min: 2100 µg/mL (≈ 6.88 mM)
[1]
  pH of saturated solution: 2.61
[6]; Milli-Q water, unbuffered, 4 °C
  solubility at 24 h: 1850 µg/mL (≈ 6.06 mM)
[6]; Milli-Q water, unbuffered, 7.6 °C
  solubility at 24 h: 1900 µg/mL (≈ 6.23 mM)
[6]; Milli-Q water, unbuffered, 21 °C
  solubility at 24 h: 2100 µg/mL (≈ 6.88 mM)
[6]; Milli-Q water, unbuffered, 30 °C
  solubility at 24 h: 2270 µg/mL (≈ 7.44 mM)
[6]; Milli-Q water, unbuffered, 40 °C
  solubility at 24 h: 2400 µg/mL (≈ 7.86 mM)
[6]; Milli-Q water, unbuffered, 50 °C
  solubility at 24 h: 3450 µg/mL (≈ 11.3 mM)
[2]
  pKa 2 (Sirius): 3.10
  pKa 3 (Sirius): 6.46
  pKa 4 (Sirius): 7.12
  pKa 5 (Sirius): 10.77
[3]; [8]
  pKa: 1.08
[3]; [9]
  pKa: 2.52
[3]; [10]
  pKa: 6.75
[3]; [11]
  pKa: 10.7
[3]; [12]
  pKa: 11.7
[3]
  logβx ± 3σ, x = 1 (H3L−): 6.75 ± 0.03
  logβx ± 3σ, x = 2 (H4L): 9.27 ± 0.05
  logβx ± 3σ, x = 3 (H5L+): 10.35 ± 0.24
  logβx ± 3σ, x = −1 (HL3−): −10.67 ± 0.03
  logβx ± 3σ, x = −2 (L4−): −22.32 ± 0.02
[4]; TG/DTA, higher crucible
  Onset temperature of first cleavage: 193 °C
  Td: 193 °C
  Temp. range of 1st cleavage: 182–212 °C
[4]; TGA 7, shallow crucible
  Onset temperature of first cleavage: 197 °C
  Td: 197 °C
  Temp. range of 1st cleavage: 175–222 °C
[4]
  Td (decomposition onset): 195 °C
